From patent publication US7964607B2, “Pyrazolo[3,4-d]pyrimidine compounds” (Pfizer Inc., priority 2007, dated 2011)

Target: T1, human recombinant PDE9 enzyme (Homo sapiens, UniProt O76083)
T1 construct: made in house; host or cells: SF-9 insect cells
Test: Phosphodiesterase 9 (PDE9) inhibitory activity, Scintillation Proximity (SPA) assay
Type: biochemical
Settings: human recombinant PDE9 from SF-9 cells; 50 nM [3H]cGMP; room temperature, 30 min; Examples 3-114; read-out: G5678A (U): IC50
Description: Phosphodiesterase 9 (PDE9) Inhibitory Activity The PDE9 assay was performed using the Phosphodiesterase Scintillation Proximity (SPA) assay (GE Healthcare Life Sciences). […] The human recombinant PDE9 enzyme was generated in SF-9 cells, the cell pellets were sonicated in buffer (20 mM TRIS, 2 mM benzamidine, 1 mM EDTA, 250 mM sucrose, 100 μM PMSF, pH 7.5 with HCl), centrifuged at 40,000×g for 20 min at 4° C. The supernatants were stored at −80° C. […] Test compounds were dissolved in DMSO, diluted in DI H2O and serially diluted in 20% DMSO/80% H2O, for a final concentration of 2% DMSO. For the assay the PDE9 was diluted with assay buffer such that 20% or less of the substrate was hydrolyzed to 5′GMP. Each assay well contained 10 μl of test compound or solvent, 40 μl of [^3H]CGMP and 50 μl of enzyme, background was determined by a high concentration of a PDE inhibitor. The assay was initiated with the addition of the enzyme and carried out at room temperature for 30 min. […] The plates were sealed, vortexed, allowed to set for >300 min, then counted in a Wallac TriLux MicroBeta LSC.

T1 sequence (O76083 whole entry): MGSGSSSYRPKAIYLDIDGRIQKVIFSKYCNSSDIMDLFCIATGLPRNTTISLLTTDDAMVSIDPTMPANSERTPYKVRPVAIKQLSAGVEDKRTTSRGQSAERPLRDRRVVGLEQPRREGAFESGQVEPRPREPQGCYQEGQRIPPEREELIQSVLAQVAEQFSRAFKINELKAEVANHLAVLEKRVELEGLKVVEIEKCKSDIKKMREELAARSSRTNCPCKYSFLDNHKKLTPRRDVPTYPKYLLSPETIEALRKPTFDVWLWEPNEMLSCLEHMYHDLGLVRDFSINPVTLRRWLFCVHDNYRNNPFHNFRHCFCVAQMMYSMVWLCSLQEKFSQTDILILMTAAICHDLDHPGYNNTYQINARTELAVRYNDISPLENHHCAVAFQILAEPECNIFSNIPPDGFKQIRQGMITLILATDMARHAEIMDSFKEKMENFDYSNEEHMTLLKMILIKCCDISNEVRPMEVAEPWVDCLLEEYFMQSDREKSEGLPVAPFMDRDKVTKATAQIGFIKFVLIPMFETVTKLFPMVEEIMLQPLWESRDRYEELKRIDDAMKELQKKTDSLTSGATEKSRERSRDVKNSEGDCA

Row | IC50 | SMILES
1 | 0.123 µM | C[C@@H]1CN(Cc2ccccc2)C[C@H]1c1nc2c(cnn2C2CCC(F)(F)CC2)c(=O)[nH]1 (racemic) [Example 63, 6-[(3,4-trans)-1-benzyl-4-methylpyrrolidin-3-yl]-1-(4,4-difluorocyclohexyl)-1,5-dihydro-4H-pyrazolo[3,4-d]pyrimidin-4-one]
2 | 0.0307 µM | COc1ccc2nccc(CN3C[C@@H](C)[C@H](c4nc5c(cnn5C(C)C)c(=O)[nH]4)C3)c2n1 (racemic) [Example 69, 1-isopropyl-6-{(3,4-trans)-1-[(6-methoxy-1,5-naphthyridin-4-yl)methyl]-4-methylpyrrolidin-3-yl}-1,5-dihydro-4H-pyrazolo[3,4-d]pyrimidin-4-one]
3 | 0.0102 µM | CC(C)n1ncc2c(=O)[nH]c([C@@H]3CN(Cc4ccc5cccc(F)c5n4)C[C@H]3C)nc21 (racemic) [Example 70, 6-{(3,4-trans)-1-[(8-fluoroquinolin-2-yl)methyl]-4-methylpyrrolidin-3-yl}-1-isopropyl-1,5-dihydro-4H-pyrazolo[3,4-d]pyrimidin-4-one]
4 | 0.0161 µM | COc1ccc2nccc(CN3C[C@@H](C)[C@H](c4nc5c(cnn5C(C)C)c(=O)[nH]4)C3)c2c1 (racemic) [Example 71, 1-isopropyl-6-{(y)-1-[(6-methoxyquinolin-4-yl)methyl]-4-methylpyrrolidin-3-yl}-1,5-dihydro-4H-pyrazolo[3,4-d]pyrimidin-4-one]
5 | 0.0401 µM | C[C@@H]1CN(Cc2ccccc2)C[C@H]1c1nc2c(cnn2C2CCC2)c(=O)[nH]1 (racemic) [Example 72, 6-[(3,4-trans)-1-benzyl-4-methylpyrrolidin-3-yl]-1-cyclobutyl-1,5-dihydro-4H-pyrazolo[3,4-d]pyrimidin-4-one]
6 | 0.00614 µM | CC[C@@H]1CN(Cc2cnc(C)nc2)C[C@H]1c1nc2c(cnn2C2CCOCC2)c(=O)[nH]1 (racemic) [Example 74]
7 | 0.0245 µM | Cc1ncc(CN2C[C@@H](C)[C@H](c3nc4c(cnn4C4CCC4)c(=O)[nH]3)C2)cn1 (racemic) [Example 83, 1-cyclobutyl-6-{(3,4-trans)-4-methyl-1-[(2-methylpyrimidin-5-yl)methyl]pyrrolidin-3-yl}-1,5-dihydro-4H-pyrazolo[3,4-d]pyrimidin-4-one]

Same assay, conditions: human recombinant PDE9 from SF-9 cells; 50 nM [3H]cGMP; room temperature, 30 min; additional compounds Ex. 115-228; read-out: G5678A (U):IC50

Row | SMILES | IC50
8 | C[C@@H]1CN(Cc2cccc(-n3cccn3)c2)C[C@H]1c1nc2c(cnn2C2CCCC2)c(=O)[nH]1 (racemic) [Example 115, 1-cyclopentyl-6-{(3,4-trans)-4-methyl-1-[3-(1H-pyrazol-1-yl)benzyl]pyrrolidin-3-yl}-1,5-dihydro-4H-pyrazolo[3,4-d]pyrimidin-4-one] | 0.0404 µM
9 | Cc1cc(CN2C[C@@H](C)[C@H](c3nc4c(cnn4C4CCCC4)c(=O)[nH]3)C2)ccn1 (racemic) [Example 116, 1-cyclopentyl-6-{(3,4-trans)-4-methyl-1-[(2-methylpyridin-4-yl)methyl]pyrrolidin-3-yl}-1,5-dihydro-4H-pyrazolo[3,4-d]pyrimidin-4-one] | 0.034 µM
10 | C[C@@H]1CN(Cc2c(F)cccc2Cl)C[C@H]1c1nc2c(cnn2C2CCCC2)c(=O)[nH]1 (racemic) [Example 117, 6-[(3,4-trans)-1-(2-chloro-6-fluorobenzyl)-4-methylpyrrolidin-3-yl]-1-cyclopentyl-1,5-dihydro-4H-pyrazolo[3,4-d]pyrimidin-4-one] | 0.126 µM
11 | Cc1cccc(CN2C[C@@H](C)[C@H](c3nc4c(cnn4C4CCCC4)c(=O)[nH]3)C2)c1C (racemic) [Example 118, 1-cyclopentyl-6-[(3,4-trans)-1-(2,3-dimethylbenzyl)-4-methylpyrrolidin-3-yl]-1,5-dihydro-4H-pyrazolo[3,4-d]pyrimidin-4-one] | 0.074 µM
12 | C[C@@H]1CN(Cc2ccccc2OC(F)F)C[C@H]1c1nc2c(cnn2C2CCCC2)c(=O)[nH]1 (racemic) [Example 119, 1-cyclopentyl-6-{(3,4-trans)-1-[2-(difluoromethoxy)benzyl]-4-methylpyrrolidin-3-yl}-1,5-dihydro-4H-pyrazolo[3,4-d]pyrimidin-4-one] | 0.0328 µM
13 | CCOc1ncccc1CN1C[C@@H](C)[C@H](c2nc3c(cnn3C3CCCC3)c(=O)[nH]2)C1 (racemic) [Example 120, 1-cyclopentyl-6-{(3,4-trans)-1-[(2-ethoxypyridin-3-yl)methyl]-4-methylpyrrolidin-3-yl}-1,5-dihydro-4H-pyrazolo[3,4-d]pyrimidin-4-one] | 0.0627 µM
14 | C[C@@H]1CN(Cc2cnn3c2CCCC3)C[C@H]1c1nc2c(cnn2C2CCCC2)c(=O)[nH]1 (racemic) [Example 121, 1-cyclopentyl-6-[(3,4-trans)-4-methyl-1-(4,5,6,7-tetrahydropyrazolo[1,5-a]pyridin-3-ylmethyl)pyrrolidin-3-yl]-1,5-dihydro-4H-pyrazolo[3,4-d]pyrimidin-4-one] | 0.0839 µM
15 | C[C@@H]1CN(Cc2ccc3c(c2)OCCO3)C[C@H]1c1nc2c(cnn2C2CCCC2)c(=O)[nH]1 (racemic) [Example 122, 1-cyclopentyl-6-[(3,4-trans)-1-(2-3-dihydro-1,4-benzodioxin-6-ylmethyl)-4-methylpyrrolidin-3-yl]-1,5-dihydro-4H-pyrazolo[3,4-d]pyrimidin-4-one] | 0.0564 µM
16 | Cc1ccc(CN2C[C@@H](C)[C@H](c3nc4c(cnn4C4CCCC4)c(=O)[nH]3)C2)cc1F (racemic) [Example 130, 1-cyclopentyl-6-[(3,4-trans)-1-(3-fluoro-4-methylbenzyl)-4-methylpyrrolidin-3-yl]-1,5-dihydro-4H-pyrazolo[3,4-d]pyrimidin-4-one] | 0.06 µM

Now from value to compound:

Row | IC50 | SMILES
17 | 0.0393 µM | C[C@@H]1CN(Cc2ccc(-n3ccnc3)cc2)C[C@H]1c1nc2c(cnn2C2CCCC2)c(=O)[nH]1 (racemic) [Example 123, 1-cyclopentyl-6-{(3,4-trans)-1-[4-(1H-imidazol-1-yl)benzyl]-4-methylpyrrolidin-3-yl}-1,5-dihydro-4H-pyrazolo[3,4-d]pyrimidin-4-one]
18 | 0.0809 µM | C[C@@H]1CN(Cc2cc(Cl)ccc2Cl)C[C@H]1c1nc2c(cnn2C2CCCC2)c(=O)[nH]1 (racemic) [Example 124, 1-cyclopentyl-6-[(3,4-trans)-1-(2,5-dichlorobenzyl)-4-methylpyrrolidin-3-yl]-1,5-dihydro-4H-pyrazolo[3,4-d]pyrimidin-4-one]
19 | 0.0552 µM | COc1ccc(CN2C[C@@H](C)[C@H](c3nc4c(cnn4C4CCCC4)c(=O)[nH]3)C2)cc1C (racemic) [Example 125, 1-cyclopentyl-6-[(3,4-trans)-1-(4-methoxy-3-methylbenzyl)-4-methylpyrrolidin-3-yl]-1,5-dihydro-4H-pyrazolo[3,4-d]pyrimidin-4-one]
20 | 0.0887 µM | C[C@@H]1CN(Cc2cccc3c2OCC3)C[C@H]1c1nc2c(cnn2C2CCCC2)c(=O)[nH]1 (racemic) [Example 126, 1-cyclopentyl-6-[(3,4-trans)-1-(2,3-dihydro-1-benzofuran-7-ylmethyl)-4-methylpyrrolidin-3-yl]-1,5-dihydro-4H-pyrazolo[3,4-d]pyrimidin-4-one]
21 | 0.0617 µM | C[C@@H]1CN(Cc2cccc(F)c2F)C[C@H]1c1nc2c(cnn2C2CCCC2)c(=O)[nH]1 (racemic) [Example 127, 1-cyclopentyl-6-[(3,4-trans)-1-(2,3-difluorobenzyl)-4-methylpyrrolidin-3-yl]-1,5-dihydro-4H-pyrazolo[3,4-d]pyrimidin-4-one]
22 | 0.0709 µM | COc1ccc(F)cc1CN1C[C@@H](C)[C@H](c2nc3c(cnn3C3CCCC3)c(=O)[nH]2)C1 (racemic) [Example 128, 1-cyclopentyl-6-[(3,4-trans)-1-(5-fluoro-2-methoxybenzyl)-4-methylpyrrolidin-3-yl]-1,5-dihydro-4H-pyrazolo[3,4-d]pyrimidin-4-one]
23 | 0.0718 µM | COc1ccc(CN2C[C@@H](C)[C@H](c3nc4c(cnn4C4CCCC4)c(=O)[nH]3)C2)c(F)c1 (racemic) [Example 129, 1-cyclopentyl-6-[(3,4-trans)-1-(2-fluoro-4-methoxybenzyl)-4-methylpyrrolidin-3-yl]-1,5-dihydro-4H-pyrazolo[3,4-d]pyrimidin-4-one]
24 | 0.0419 µM | Cc1ncc(CN2C[C@@H](C)[C@H](c3nc4c(cnn4C4CCCC4)c(=O)[nH]3)C2)s1 (racemic) [Example 131, 1-cyclopentyl-6-{(3,4-trans)-4-methyl-1-[(2-methyl-1,3-thiazol-5-yl)methyl]pyrrolidin-3-yl}-1,5-dihydro-4H-pyrazolo[3,4-d]pyrimidin-4-one]
25 | 0.0375 µM | CC(C)c1csc(CN2C[C@@H](C)[C@H](c3nc4c(cnn4C4CCCC4)c(=O)[nH]3)C2)n1 (racemic) [Example 132, 1-cyclopentyl-6-{(3,4-trans)-1-[(4-isopropyl-1,3-thiazol-2-yl)methyl]-4-methylpyrrolidin-3-yl}-1,5-dihydro-4H-pyrazolo[3,4-d]pyrimidin-4-one]
26 | 0.0935 µM | Cc1ccc(CN2C[C@@H](C)[C@H](c3nc4c(cnn4C4CCCC4)c(=O)[nH]3)C2)c(F)c1F (racemic) [Example 134, 1-cyclopentyl-6-[(3,4-trans)-1-(2,3-difluoro-4-methylbenzyl)-4-methylpyrrolidin-3-yl]-1,5-dihydro-4H-pyrazolo[3,4-d]pyrimidin-4-one]
